In patent US8450400B2, “Polypropylene resin composition and molded article made thereof” (Sumitomo Chemical Company, Limited, priority 2007, dated 2013):

Assay: Weight loss rate by thermogravimetric analysis (TG-DTA) to 300° C. under nitrogen
Format: physicochemical
Conditions: room temperature to 300° C. at 10° C./min, nitrogen gas atmosphere (100 ml/min)
Method: Regarding requirement (c), from the viewpoint of the staining of a mold, the emitted amount of VOC, and the weather resistance, the weight loss rate measured in a thermogravimetric analysis at a temperature of 300° C. under a nitrogen gas atmosphere preferably is less than 5% by weight, and more preferably is less than 3% by weight. The weight loss rate measured by the thermogravimetric analysis of a hindered amine light stabilizer (D) to be used for the present invention is a value determined by using a thermo gravimetry differential thermal analyzer (TG-DTA). Described concretely, it is a weight loss rate determined using a thermobalance when the temperature of a hindered amine light stabilizer (D) is increased from room temperature to 300° C. at a rate of 10° C. per minute under a nitrogen gas atmosphere (in a nitrogen flow at a flow rate of 100 ml/min).
From the viewpoint of inhibiting mold staining, the weight loss rate of the nonionic antistatic agent (E) to be used for the present invention measured by thermogravimetric analysis executed at a temperature of 300° C. under a nitrogen atmosphere preferably is less than 20% by weight, and more preferably 5 to 15% by weight. The weight loss rate is determined by the use of a thermo gravimetry differential thermal analyzer (TG-DTA). Described concretely, it is a weight loss rate determined using a thermobalance when the temperature of the nonionic antistatic agent (E) is increased from room temperature to 300° C. at a rate of 10° C. per minute under a nitrogen gas atmosphere (in a nitrogen flow at a flow rate of 100 ml/min).
The weight loss by thermogravimetric analysis (TG-DTA) of a light stabilizer was measured with a thermo gravimetry differential thermal analyzer from room temperature to 300° C. at a temperature increasing rate of 10° C./min under a nitrogen gas atmosphere (gas flow rate: 100 ml/min). […]
In the case of `CC(C)(C)c1ccc(OC(=O)c2cc(C(C)(C)C)c(O)c(C(C)(C)C)c2)c(C(C)(C)C)c1` [Example D-3, 2,4-di-tert-butylphenyl 3,5-di-tert-butyl-4-hydroxybenzoate], the “Weight loss rate by TG-DTA” value is reported as 31.6 % by weight. With `CC1(C)CC(OC(=O)CCCCCCCCC(=O)OC2CC(C)(C)NC(C)(C)C2)CC(C)(C)N1` [Example D-2, Bis(2,2,6,6-tetramethyl-4-piperidyl) sebacate] the “Weight loss rate by TG-DTA” value was 19.6 % by weight. For “Stearic acid monoglyceride [Example E-1]”, the “Weight loss rate by TG-DTA” value was 23.8 % by weight.
